≈ marks a conversion by molar mass, not a printed value. Where “and” joins values, the source holds several entries; their conditions need not be identical. Identical values can stand only once.
Experiments:
[1] = Aqueous solubility (nephelometric); assay type: physicochemical; details: for Solubility: single replicates
Neisseria gonorrhoeae = experiment: MIC, microbroth dilution, G77L medium; assay type: cell-based; details: Neisseria gonorrhoeae ATCC 49226; source data, individual replicates
[2] = Liver microsome stability, murine; assay type: in vitro ADME, mouse; details: for Average MLMS t½ / MLMS t½: murine liver microsomes; for Average MLMS t½: average of replicates; for MLMS t½: individual replicates
Procedure: To examine potential for first-pass metabolism of analogs in the liver, the stability of analogs in the presence of liver microsome preparations (Eurofins Discovery for human, dog and rat; Xenotech for mouse) was measured using the method of Kuhnz, et al.[50]. for murine studies and Oback for the dog, human and rat studies. The amount of parent compound remaining after incubation with microsomes in the presence of NADPH over a 30 min time range was measured using a reverse-phase liquid chromatography/mass spectroscopy method that was customized for each compound. Half-lives were calculated using linear regression analysis of several time points.

HeLa cells [3] = experiment: Mammalian cell cytotoxicity (CC50); assay type: cell-based, human; details: one value per replicate
HeLa cells [4] = experiment: Mammalian cell cytotoxicity (CC50); assay type: cell-based, human; details: HeLa, replicates
Procedure: The half maximal cytotoxic concentration (CC50) of each compound against HeLa cells (ATCC CCL-2) was measured as previously described. […] The mean values for each biological replicate were averaged, and the CC50 was determined using a 4-parameter nonlinear curve fitting algorithm (GraphPad Prism). The average of the CC50s from two biological replicates was calculated and reported.

Escherichia coli = experiment: microbe, parasite or virus in culture; assay type: cell-based; details: E. coli KLE701 (ΔtolC::tet); source data, individual replicates

O=C(Nc1nnc(-c2ccc(F)cc2)o1)C1CCCCC1 [MBX-3709]
Average solubility [1]: 25 µM
Solubility [1]: 25 µM (≈ 7.23 µg/mL)
MIC (Neisseria gonorrhoeae): 7.233 mg/L and 3.616 mg/L
Average MLMS t½ [2]: <5 min
MLMS t½ [2]: <5 min
CC50 (HeLa cells [3]): ≥ 100 µM
NORMALIZED DATA (Fraction DMSO Control) (HeLa cells [4]; [CMPD] 0.78125 µM): 0.9843 Fraction DMSO Control and 0.9839 Fraction DMSO Control and 1.011 Fraction DMSO Control and 0.9844 Fraction DMSO Control and 1.002 Fraction DMSO Control and 0.9797 Fraction DMSO Control
NORMALIZED DATA (Fraction DMSO Control) (HeLa cells [4]; [CMPD] 1.5625 µM): 1.013 Fraction DMSO Control and 1.069 Fraction DMSO Control and 1.052 Fraction DMSO Control and 1.032 Fraction DMSO Control and 1.012 Fraction DMSO Control and 1.033 Fraction DMSO Control
NORMALIZED DATA (Fraction DMSO Control) (HeLa cells [4]; [CMPD] 3.125 µM): 1.017 Fraction DMSO Control and 1.012 Fraction DMSO Control and 1.028 Fraction DMSO Control and 1.006 Fraction DMSO Control and 0.9958 Fraction DMSO Control and 1.035 Fraction DMSO Control
NORMALIZED DATA (Fraction DMSO Control) (HeLa cells [4]; [CMPD] 6.25 µM): 0.9952 Fraction DMSO Control and 1.018 Fraction DMSO Control and 1.016 Fraction DMSO Control and 1.009 Fraction DMSO Control and 1.013 Fraction DMSO Control and 1.001 Fraction DMSO Control
NORMALIZED DATA (Fraction DMSO Control) (HeLa cells [4]; [CMPD] 12.5 µM): 1.025 Fraction DMSO Control and 1.013 Fraction DMSO Control and 1.022 Fraction DMSO Control and 1.004 Fraction DMSO Control and 1.002 Fraction DMSO Control and 1.0412 Fraction DMSO Control
NORMALIZED DATA (Fraction DMSO Control) (HeLa cells [4]; [CMPD] 25 µM): 1.006 Fraction DMSO Control and 1.033 Fraction DMSO Control and 1.009 Fraction DMSO Control and 1.014 Fraction DMSO Control and 0.9855 Fraction DMSO Control and 1.046 Fraction DMSO Control
NORMALIZED DATA (Fraction DMSO Control) (HeLa cells [4]; [CMPD] 50 µM): 0.7814 Fraction DMSO Control and 0.7858 Fraction DMSO Control and 0.7422 Fraction DMSO Control and 0.8088 Fraction DMSO Control and 0.7466 Fraction DMSO Control and 0.7859 Fraction DMSO Control
NORMALIZED DATA (Fraction DMSO Control) (HeLa cells [4]; [CMPD] 100 µM): 0.7348 Fraction DMSO Control and 0.7441 Fraction DMSO Control and 0.7211 Fraction DMSO Control and 0.7931 Fraction DMSO Control and 0.7717 Fraction DMSO Control and 0.7681 Fraction DMSO Control
MIC (Escherichia coli): 28.931 mg/L (≈ 100 µM)

O=C(Nc1nnc(-c2ccccc2)o1)c1ccc(Cl)cc1 [MBX-3910]
Average solubility [1]: 12.5 µM
Solubility [1]: 12.5 µM (≈ 3.75 µg/mL)
MIC (Neisseria gonorrhoeae): 0.2341 mg/L and 0.1172 mg/L
Average MLMS t½ [2]: 5 min
MLMS t½ [2]: 5 min
CC50 (HeLa cells [3]): 42.1 µM and 40.9 µM and > 100 µM and 36.7 µM and 35.8 µM and 41 µM
NORMALIZED DATA (Fraction DMSO Control) (HeLa cells [4]; [CMPD] 0.78125 µM): 1.08 Fraction DMSO Control and 1.097 Fraction DMSO Control and 1.14 Fraction DMSO Control and 1.04 Fraction DMSO Control and 1.054 Fraction DMSO Control and 1.05 Fraction DMSO Control
NORMALIZED DATA (Fraction DMSO Control) (HeLa cells [4]; [CMPD] 1.5625 µM): 1.101 Fraction DMSO Control and 1.0991 Fraction DMSO Control and 1.152 Fraction DMSO Control and 1.073 Fraction DMSO Control and 1.065 Fraction DMSO Control and 1.0674 Fraction DMSO Control
NORMALIZED DATA (Fraction DMSO Control) (HeLa cells [4]; [CMPD] 3.125 µM): 1.088 Fraction DMSO Control and 1.064 Fraction DMSO Control and 1.13 Fraction DMSO Control and 1.029 Fraction DMSO Control and 1.037 Fraction DMSO Control and 1.067 Fraction DMSO Control
NORMALIZED DATA (Fraction DMSO Control) (HeLa cells [4]; [CMPD] 6.25 µM): 1.079 Fraction DMSO Control (2×) and 1.139 Fraction DMSO Control and 1.051 Fraction DMSO Control and 1.03 Fraction DMSO Control and 1.024 Fraction DMSO Control
NORMALIZED DATA (Fraction DMSO Control) (HeLa cells [4]; [CMPD] 12.5 µM): 1.036 Fraction DMSO Control and 1.056 Fraction DMSO Control and 1.0972 Fraction DMSO Control and 1.011 Fraction DMSO Control and 0.9941 Fraction DMSO Control and 0.9999 Fraction DMSO Control
NORMALIZED DATA (Fraction DMSO Control) (HeLa cells [4]; [CMPD] 25 µM): 0.7722 Fraction DMSO Control and 0.7686 Fraction DMSO Control and 0.9894 Fraction DMSO Control and 0.8554 Fraction DMSO Control and 0.8395 Fraction DMSO Control and 0.8785 Fraction DMSO Control
NORMALIZED DATA (Fraction DMSO Control) (HeLa cells [4]; [CMPD] 50 µM): 0.4225 Fraction DMSO Control and 0.4189 Fraction DMSO Control and 0.8248 Fraction DMSO Control and 0.6289 Fraction DMSO Control and 0.6212 Fraction DMSO Control and 0.6018 Fraction DMSO Control
NORMALIZED DATA (Fraction DMSO Control) (HeLa cells [4]; [CMPD] 100 µM): 0.1921 Fraction DMSO Control and 0.2466 Fraction DMSO Control and 0.6012 Fraction DMSO Control and 0.4687 Fraction DMSO Control and 0.4717 Fraction DMSO Control and 0.4092 Fraction DMSO Control
MIC (Escherichia coli): 0.9366 mg/L (≈ 3.12 µM)

O=C(Nc1nnc(-c2ccc(F)cc2)o1)N1CCCC1 [MBX-4346]
Average solubility [1]: >200 µM
Solubility [1]: >200 µM
MIC (Neisseria gonorrhoeae): 3.453 mg/L (≈ 12.5 µM)
liver microsome stability (in words) [2]: limited
Average MLMS t½ [2]: 25 min
MLMS t½ [2]: 30.1 min and 20.5 min
CC50 (HeLa cells [3]): ≥ 100 µM
NORMALIZED DATA (Fraction DMSO Control) (HeLa cells [4]; [CMPD] 0.78125 µM): 1.217 Fraction DMSO Control and 0.9631 Fraction DMSO Control and 1.029 Fraction DMSO Control
NORMALIZED DATA (Fraction DMSO Control) (HeLa cells [4]; [CMPD] 1.5625 µM): 1.148 Fraction DMSO Control and 0.9904 Fraction DMSO Control and 1.014 Fraction DMSO Control
NORMALIZED DATA (Fraction DMSO Control) (HeLa cells [4]; [CMPD] 3.125 µM): 1.14 Fraction DMSO Control and 1.021 Fraction DMSO Control and 1.0883 Fraction DMSO Control
NORMALIZED DATA (Fraction DMSO Control) (HeLa cells [4]; [CMPD] 6.25 µM): 1.122 Fraction DMSO Control and 0.9837 Fraction DMSO Control and 1.041 Fraction DMSO Control
NORMALIZED DATA (Fraction DMSO Control) (HeLa cells [4]; [CMPD] 12.5 µM): 1.103 Fraction DMSO Control and 1.043 Fraction DMSO Control and 1.0247 Fraction DMSO Control
NORMALIZED DATA (Fraction DMSO Control) (HeLa cells [4]; [CMPD] 25 µM): 1.033 Fraction DMSO Control and 0.9838 Fraction DMSO Control and 0.9917 Fraction DMSO Control
NORMALIZED DATA (Fraction DMSO Control) (HeLa cells [4]; [CMPD] 50 µM): 0.972 Fraction DMSO Control and 0.8011 Fraction DMSO Control and 0.809 Fraction DMSO Control
NORMALIZED DATA (Fraction DMSO Control) (HeLa cells [4]; [CMPD] 100 µM): 0.8767 Fraction DMSO Control and 0.7312 Fraction DMSO Control and 0.7411 Fraction DMSO Control
MIC (Escherichia coli): 27.6271 mg/L (≈ 100 µM)

O=C(Nc1nnc(-c2ccc(F)cc2)o1)N1CCCCC1 [MBX-4699]
Average solubility [1]: 50 µM
Solubility [1]: 50 µM (≈ 14.5 µg/mL)
MIC (Neisseria gonorrhoeae): 0.9072 mg/L (≈ 3.13 µM)
Average MLMS t½ [2]: 12 min
MLMS t½ [2]: 10.1 min and 13.2 min
CC50 (HeLa cells [3]): ≥ 100 µM
NORMALIZED DATA (Fraction DMSO Control) (HeLa cells [4]; [CMPD] 0.78125 µM): 1.206 Fraction DMSO Control and 0.9471 Fraction DMSO Control and 1 Fraction DMSO Control
NORMALIZED DATA (Fraction DMSO Control) (HeLa cells [4]; [CMPD] 1.5625 µM): 1.141 Fraction DMSO Control and 0.9447 Fraction DMSO Control and 0.9657 Fraction DMSO Control
NORMALIZED DATA (Fraction DMSO Control) (HeLa cells [4]; [CMPD] 3.125 µM): 1.163 Fraction DMSO Control and 1.061 Fraction DMSO Control and 1.0891 Fraction DMSO Control
NORMALIZED DATA (Fraction DMSO Control) (HeLa cells [4]; [CMPD] 6.25 µM): 1.089 Fraction DMSO Control and 1.109 Fraction DMSO Control and 1.081 Fraction DMSO Control
NORMALIZED DATA (Fraction DMSO Control) (HeLa cells [4]; [CMPD] 12.5 µM): 0.7963 Fraction DMSO Control and 0.7071 Fraction DMSO Control and 0.8639 Fraction DMSO Control
NORMALIZED DATA (Fraction DMSO Control) (HeLa cells [4]; [CMPD] 25 µM): 0.8798 Fraction DMSO Control and 0.8258 Fraction DMSO Control and 0.8774 Fraction DMSO Control
NORMALIZED DATA (Fraction DMSO Control) (HeLa cells [4]; [CMPD] 50 µM): 0.9431 Fraction DMSO Control and 0.7958 Fraction DMSO Control and 0.7843 Fraction DMSO Control
NORMALIZED DATA (Fraction DMSO Control) (HeLa cells [4]; [CMPD] 100 µM): 0.7918 Fraction DMSO Control and 0.6844 Fraction DMSO Control and 0.6971 Fraction DMSO Control
MIC (Escherichia coli): 7.257 mg/L (≈ 25 µM)

O=C(Nc1nnc(-c2ccc(F)cc2)o1)N1CCCCCC1 [MBX-4700]
Average solubility [1]: 25 µM
Solubility [1]: 25 µM (≈ 7.61 µg/mL)
MIC (Neisseria gonorrhoeae): 0.951 mg/L and 0.4755 mg/L
Average MLMS t½ [2]: 19 min
MLMS t½ [2]: 16.8 min and 21.8 min
CC50 (HeLa cells [3]): ≥ 100 µM
NORMALIZED DATA (Fraction DMSO Control) (HeLa cells [4]; [CMPD] 0.78125 µM): 1.19 Fraction DMSO Control and 0.9349 Fraction DMSO Control and 0.9879 Fraction DMSO Control
NORMALIZED DATA (Fraction DMSO Control) (HeLa cells [4]; [CMPD] 1.5625 µM): 1.113 Fraction DMSO Control and 0.9447 Fraction DMSO Control and 0.9899 Fraction DMSO Control
NORMALIZED DATA (Fraction DMSO Control) (HeLa cells [4]; [CMPD] 3.125 µM): 1.151 Fraction DMSO Control and 1.008 Fraction DMSO Control and 1.078 Fraction DMSO Control
NORMALIZED DATA (Fraction DMSO Control) (HeLa cells [4]; [CMPD] 6.25 µM): 0.9458 Fraction DMSO Control and 0.9081 Fraction DMSO Control and 0.9843 Fraction DMSO Control
NORMALIZED DATA (Fraction DMSO Control) (HeLa cells [4]; [CMPD] 12.5 µM): 0.7537 Fraction DMSO Control and 0.7467 Fraction DMSO Control and 0.8509 Fraction DMSO Control
NORMALIZED DATA (Fraction DMSO Control) (HeLa cells [4]; [CMPD] 25 µM): 0.8669 Fraction DMSO Control and 0.6852 Fraction DMSO Control and 0.8634 Fraction DMSO Control
NORMALIZED DATA (Fraction DMSO Control) (HeLa cells [4]; [CMPD] 50 µM): 0.8891 Fraction DMSO Control and 0.7812 Fraction DMSO Control and 0.7745 Fraction DMSO Control
NORMALIZED DATA (Fraction DMSO Control) (HeLa cells [4]; [CMPD] 100 µM): 0.8207 Fraction DMSO Control and 0.7165 Fraction DMSO Control and 0.6953 Fraction DMSO Control
MIC (Escherichia coli): 3.804 mg/L and 7.608 mg/L
